Assay results published in the CheMixHub ionic liquid set.

Assay: xn = mol fraction of the nth substance listed
Conditions: 100 kPa

CCCCCCCC[n+]1ccccc1.[Br-] + CC(C)[C@H](N)C(=O)O + O
Conditions | electrical conductivity [S/m]
288.15 K, x2 = 0.0008935, x1 = 0.007418 | 1.31
288.15 K, x2 = 0.0008938, x1 = 0.007086 | 1.29
288.15 K, x2 = 0.0008942, x1 = 0.006704 | 1.26
288.15 K, x2 = 0.0008945, x1 = 0.006295 | 1.23
288.15 K, x2 = 0.0008949, x1 = 0.005851 | 1.19
288.15 K, x2 = 0.0008954, x1 = 0.005368 | 1.14
288.15 K, x2 = 0.0008958, x1 = 0.004839 | 1.08
288.15 K, x2 = 0.0008964, x1 = 0.004257 | 1.01
288.15 K, x2 = 0.0008969, x1 = 0.003625 | 0.906
288.15 K, x2 = 0.0008976, x1 = 0.002914 | 0.777
288.15 K, x2 = 0.0008982, x1 = 0.002179 | 0.624
288.15 K, x2 = 0.0008986, x1 = 0.001732 | 0.519
288.15 K, x2 = 0.0008991, x1 = 0.001237 | 0.396
288.15 K, x2 = 0.0008995, x1 = 0.0007528 | 0.27
288.15 K, x2 = 0.001786, x1 = 0.006884 | 1.26
288.15 K, x2 = 0.001787, x1 = 0.006555 | 1.23
288.15 K, x2 = 0.001788, x1 = 0.005847 | 1.16
288.15 K, x2 = 0.001788, x1 = 0.006214 | 1.19
288.15 K, x2 = 0.001789, x1 = 0.005457 | 1.12
288.15 K, x2 = 0.00179, x1 = 0.005019 | 1.08
288.15 K, x2 = 0.001791, x1 = 0.004547 | 1.02
288.15 K, x2 = 0.001792, x1 = 0.00402 | 0.951
288.15 K, x2 = 0.001793, x1 = 0.003446 | 0.852
288.15 K, x2 = 0.001794, x1 = 0.002816 | 0.736
288.15 K, x2 = 0.001795, x1 = 0.002155 | 0.601
288.15 K, x2 = 0.001796, x1 = 0.001258 | 0.39
288.15 K, x2 = 0.001796, x1 = 0.001677 | 0.494
288.15 K, x2 = 0.001797, x1 = 0.000791 | 0.274
293.15 K, x2 = 0.0008935, x1 = 0.007404 | 1.5
293.15 K, x2 = 0.0008938, x1 = 0.007072 | 1.47
293.15 K, x2 = 0.0008942, x1 = 0.00669 | 1.43
293.15 K, x2 = 0.0008945, x1 = 0.006282 | 1.39
293.15 K, x2 = 0.0008949, x1 = 0.005839 | 1.34
293.15 K, x2 = 0.0008954, x1 = 0.005359 | 1.29
293.15 K, x2 = 0.0008958, x1 = 0.00483 | 1.23
293.15 K, x2 = 0.0008964, x1 = 0.004248 | 1.15
293.15 K, x2 = 0.0008969, x1 = 0.003618 | 1.03
293.15 K, x2 = 0.0008976, x1 = 0.002909 | 0.878
293.15 K, x2 = 0.0008982, x1 = 0.002176 | 0.703
293.15 K, x2 = 0.0008986, x1 = 0.00173 | 0.585
293.15 K, x2 = 0.0008991, x1 = 0.001235 | 0.446
293.15 K, x2 = 0.0008995, x1 = 0.0007528 | 0.302
293.15 K, x2 = 0.001786, x1 = 0.006871 | 1.44
293.15 K, x2 = 0.001787, x1 = 0.006543 | 1.4
293.15 K, x2 = 0.001788, x1 = 0.005835 | 1.32
293.15 K, x2 = 0.001788, x1 = 0.006203 | 1.36
293.15 K, x2 = 0.001789, x1 = 0.005446 | 1.28
293.15 K, x2 = 0.00179, x1 = 0.00501 | 1.23
293.15 K, x2 = 0.001791, x1 = 0.004538 | 1.16
293.15 K, x2 = 0.001792, x1 = 0.004013 | 1.08
293.15 K, x2 = 0.001793, x1 = 0.003439 | 0.962
293.15 K, x2 = 0.001794, x1 = 0.002811 | 0.835
293.15 K, x2 = 0.001795, x1 = 0.002152 | 0.681
293.15 K, x2 = 0.001796, x1 = 0.001254 | 0.441
293.15 K, x2 = 0.001796, x1 = 0.001673 | 0.556
293.15 K, x2 = 0.001797, x1 = 0.0007892 | 0.308
298.15 K, x2 = 0.0008935, x1 = 0.007393 | 1.7
298.15 K, x2 = 0.0008938, x1 = 0.007063 | 1.66
298.15 K, x2 = 0.0008942, x1 = 0.006681 | 1.62
298.15 K, x2 = 0.0008945, x1 = 0.006273 | 1.57
298.15 K, x2 = 0.0008949, x1 = 0.005831 | 1.52
298.15 K, x2 = 0.0008954, x1 = 0.005351 | 1.46
298.15 K, x2 = 0.0008959, x1 = 0.004824 | 1.38
298.15 K, x2 = 0.0008964, x1 = 0.004243 | 1.28
298.15 K, x2 = 0.0008969, x1 = 0.003614 | 1.15
298.15 K, x2 = 0.0008976, x1 = 0.002905 | 0.986
298.15 K, x2 = 0.0008982, x1 = 0.002174 | 0.784
298.15 K, x2 = 0.0008986, x1 = 0.001726 | 0.653
298.15 K, x2 = 0.0008991, x1 = 0.001234 | 0.498
298.15 K, x2 = 0.0008995, x1 = 0.000751 | 0.336
